Test results as given in patent publication US7005430B2, “Fused purine derivatives” (Kyowa Hakko Kogyo Co., Ltd., priority 1999, dated 2006).
Structures can show the parent of a compound that is named as a salt.

How the values were obtained:
MIN6 cell = assay: Insulin secretion promoting activity for cultured β cells (MIN6); format: cell-based; conditions: for secretion promoting action at a low glucose concentration (in words): MIN6 cells, glucose at a low concentration (5 mmol/L)
Experimental: Culture of the MIN6 cells above and insulin secretion test utilizing the MIN6 cells were performed according to the methods described in Diabetologia, vol. 36, pp. 1139–1145, 1993. The effect of a compound on the insulin secretion in the presence of 14.5 mmol/L glucose was determined by measuring insulin amounts in cell culture supernatants collected as follows. MIN6 cells cultured on a 24-well plate were washed twice by using 1 mL of Buffer A (119 mmol/L sodium chloride, 4.74 mmol/L potassium chloride, 2.54 mmol/L calcium chloride, 1.19 mmol/L magnesium sulfate, 1.19 mmol/L potassium dihydrogenphosphate, 10 mmol/L 2-[4-(2-hydroxyethyl)-1-piperazinyl]ethanesulfonic acid, 0.1% bovine serum albumin, pH 7.3) containing 2 mmol/L glucose, and then were incubated in 1 mL of Buffer A containing 2 mmol/L glucose at 37° C. for 45 minutes. After the incubation, the culture supernatant was changed to Buffer A (0.9 mL) containing a test compound at various concentrations and 2 mmol/L glucose, and the cells were further incubated at 37° C. for 15 minutes. The MIN6 cells were stimulated with glucose by the addition of Buffer A (0.1 mL) containing 127 mmol/L glucose to the culture (final glucose concentration: 14.5 mmol/L). After the stimulation, the cells were further incubated at 37° C. for 45 minutes, and then the culture supernatant was collected.
Separately, the effect of a compound on the insulin secretion in the presence of 5 mmol/L glucose was determined by measuring insulin amounts in cell culture supernatants collected as follows. MIN6 cells cultured on a 24-well plate were washed twice by using 1 mL of Buffer A containing 5 mmol/L glucose, and then the culture supernatant was changed to Buffer A (0.9 mL) containing a test compound at various concentrations and 5 mmol/L glucose. Then, the cells were incubated at 37° C. for 45 minutes (final glucose concentration: 5 mmol/L), and the culture supernatant was collected.
After the culture supernatant was diluted with a phosphate buffer containing 1% bovine serum albumin, 0.1% Tween 20, 0.12% disodium ethylenediaminetetraacetate (EDTA) and 0.1% sodium azide, antibody-reactive insulin secreted in the culture supernatant was quantified by enzyme immunoassay or radio immunoassay. The insulin level was indicated as the amount of human insulin (ng/mL). The results are indicated as averages (avg) for 3 to 4 samples with standard erroe values (se).

[1] = in the presence of 5 mmol/L of glucose, drug concentration 10 (mmol/L [sic]), None = 51.2
[2] = in the presence of 14.5 mmol/L of glucose, drug concentration 1.0 μmol/L, None = 148.4

Row | melting point | SMILES | Insulin secretion amount (ng/ml) avg (MIN6 cell; [1]) [ng/mL] | Insulin secretion amount (ng/ml) avg (MIN6 cell; [2]) [ng/mL] | further results
1 | 274 to 276 °C | CCCN1C(=O)N2C[C@@H](Cc3ccccc3)N=C2c2[nH]c(CCC(=O)O)nc21 | – | – | –
2 | 204 to 205 °C | CCCN1C(=O)N2C[C@@H](Cc3ccccc3)N=C2c2[nH]c(C3CCN(C(=O)OC(C)(C)C)CC3)nc21.Cl | – | – | –
3 | 280 °C (dec.) | Cl.O=C(O)CN1C(=O)N2C[C@@H](Cc3ccccc3)N=C2c2[nH]c(C3CCCC3)nc21 | – | – | –
4 | 165 to 167 °C | Cl.O=C1N2C[C@@H](Cc3ccc(F)cc3)N=C2c2[nH]c(C3CCCC3)nc2N1CCO | – | – | –
5 | 187 to 188 °C | CCCN1C(=O)N2C[C@@H](Cc3ccccc3)N=C2c2[nH]c(C3(O)CCCC3)nc21 (as salt: salt) [Compound 40, (R)-8-Benzyl-7,8-dihydro-2-(1-hydroxycyclopentyl)-4-(n-propyl)-1H-imidazo[2,1-i]purin-5(4H)-one] | – | – | –
6 | – | CC(C)[C@H]1CC[C@H](C(=O)N[C@H](Cc2ccccc2)C(=O)O)CC1 [AY4166, reference compound] | 170.8 | – | secretion promoting action at a low glucose concentration (in words) (MIN6 cell): marked secretion promoting action; Insulin secretion amount (ng/ml) avg (MIN6 cell; in the presence of 14.5 mmol/L of glucose, drug concentration 10 μmol/L, None = 148.4): 195.1 ng/mL
7 | 270 to 274 °C | CCCc1nc2c([nH]1)C1=NC(Cc3ccncc3)CN1C(=O)N2CCC (stereo not drawn) [Compound 8, 7,8-Dihydro-8-(4-picolyl)-2,4-dipropyl-1H-imidazo[2,1-i]purin-5(4H)-one] | – | – | –
8 | – | CCCN1C(=O)N2C[C@@H](Cc3ccncc3)N=C2c2[nH]c(C3CCCCC3)nc21 [Compound 9, (R)-2-Cyclohexyl-7,8-dihydro-8-(4-picolyl)-4-(n-propyl)-1H-imidazo[2,1-i]purin-5(4H)-one] | 74.0 | 197.6 | –
9 | – | CCCN1C(=O)N2C[C@@H](Cc3ccncc3)N=C2c2[nH]c(C3CCC3)nc21 [Compound 10, (R)-2-Cyclobutyl-7,8-dihydro-8-(4-picolyl)-4-(n-propyl)-1H-imidazo[2,1-i]purin-5(4H)-one D-tartrate] | 74.9 | 196.8 | –
10 | 293 to 295 °C | CCCN1C(=O)N2CC(Cc3ccncc3)N=C2c2[nH]c(C(C)(C)C)nc21 (stereo not drawn) [Compound 11, 2-(tert-Butyl)-7,8-dihydro-8-(4-picolyl)-4-(n-propyl)-1H-imidazo[2,1-i]purin-5(4H)-one] | – | – | –
11 | – | O=C1N2CC(Cc3ccncc3)N=C2c2[nH]c(C3CCCC3)nc2N1CC1CC1 (stereo not drawn) [Compound 14, 2-Cyclopentyl-4-cyclopropylmethyl-7,8-dihydro-8-(4-picolyl)-1H-imidazo[2,1-i]purin-5(4H)-one dihydrochloride] | 66.4 | 177.9 | –
12 | – | CCCN1C(=O)N2CC(Cn3cccn3)N=C2c2[nH]c(C3CCCC3)nc21 (stereo not drawn) [Compound 21, 2-Cyclopentyl-7,8-dihydro-4-(n-propyl)-8-(1-pyrazolylmethyl)-1H-imidazo[2,1-i]purin-5(4H)-one] | 74.8 | 182.1 | –
13 | – | CCCN1C(=O)N2CC(Cn3cccc3)N=C2c2[nH]c(C3CCCC3)nc21 (stereo not drawn) [Compound 24, 2-Cyclopentyl-7,8-dihydro-4-(n-propyl)-8-(1-pyrrolylmethyl)-1H-imidazo[2,1-i]purin-5(4H)-one] | 71.8 | 200.0 | –
14 | 200 to 206 °C | CCCN1C(=O)N2C[C@@H](Cc3ccccc3)N=C2c2c1nc(Br)n2Cc1ccccc1 [Compound 35, (R)-1,8-Dibenzyl-2-bromo-7,8-dihydro-4-(n-propyl)-1H-imidazo[2,1-i]purin-5(4H)-one] | – | – | –
15 | 110 to 112 °C | CCCN1C(=O)N2C[C@@H](Cc3ccccc3)N=C2c2c1nc(SC)n2COC [Compound 36, (R)-8-Benzyl-7,8-dihydro-1-methoxymethyl-2-methylthio-4-(n-propyl)-1H-imidazo[2,1-i]purin-5(4H)-one] | – | – | –
16 | – | CCCN1C(=O)N2C[C@@H](Cc3ccccc3)N=C2c2[nH]c(C3(O)CCCC3)nc21 [Compound 40, (R)-8-Benzyl-7,8-dihydro-2-(1-hydroxycyclopentyl)-4-(n-propyl)-1H-imidazo[2,1-i]purin-5(4H)-one] | 56.7 | 191.2 | –
17 | 184 to 185 °C | CCCN1C(=O)N2C[C@@H](Cc3ccccc3)N=C2c2c1nc(C=O)n2Cc1ccccc1 [Compound 41, (R)-1,8-Dibenzyl-2-formyl-7,8-dihydro-4-(n-propyl)-1H-imidazo[2,1-i]purin-5(4H)-one] | – | – | –
18 | 112 to 113 °C | CCCN1C(=O)N2C[C@@H](Cc3ccccc3)N=C2c2c1nc(CCl)n2Cc1ccccc1 [Compound 42, (R)-1,8-Dibenzyl-2-chloromethyl-7,8-dihydro-4-(n-propyl)-1H-imidazo[2,1-i]purin-5(4H)-one] | – | – | –
19 | – | CCCN1C(=O)N2C[C@@H](Cc3ccccc3)N=C2c2[nH]c(COCC)nc21.CCCN1C(=O)N2C[C@@H](Cc3ccccc3)N=C2c2[nH]c(COCC)nc21.O=C(O)/C=C/C(=O)O [Compound 45, (R)-8-Benzyl-2-ethoxymethyl-7,8-dihydro-4-(n-propyl)-1H-imidazo[2,1-i]purin-5(4H)-one 0.5 fumarate] | 69.9 | 178.8 | –
20 | – | CCCN1C(=O)N2C[C@@H](Cc3ccccc3)N=C2c2[nH]c(C3CCCO3)nc21 (stereo partly drawn) [Compound 51, (R)-8-Benzyl-7,8-dihydro-4-(n-propyl)-2-(tetrahydrofuran-2-yl)-1H-imidazo[2,1-i]purin-5(4H)-one D-tartrate] | 79.2 | 180.8 | –
21 | – | CCCN1C(=O)N2C[C@@H](Cc3ccccc3)N=C2c2[nH]c(COCc3ccccc3)nc21.CCCN1C(=O)N2C[C@@H](Cc3ccccc3)N=C2c2[nH]c(COCc3ccccc3)nc21.O=C(O)/C=C/C(=O)O [Compound 56, (R)-8-Benzyl-2-benzyloxymethyl-7,8-dihydro-4-(n-propyl)-1H-imidazo[2,1-i]purin-5(4H)-one 0.5 fumarate] | 56.2 | 189.0 | –
22 | – | CCCN1C(=O)N2C[C@@H](Cc3ccccc3)N=C2c2[nH]c(CSCC)nc21.CCCN1C(=O)N2C[C@@H](Cc3ccccc3)N=C2c2[nH]c(CSCC)nc21.O=C(O)/C=C/C(=O)O [Compound 64, (R)-8-Benzyl-2-ethylthiomethyl-7,8-dihydro-4-(n-propyl)-1H-imidazo[2,1-i]purin-5(4H)-one 0.5 fumarate] | 61.2 | 204.9 | –
23 | – | CSCCCOC1=Nc2nc(C3CCCC3)[nH]c2C2=N[C@H](Cc3ccccc3)CN12 [Compound 71, (R)-8-Benzyl-2-cyclopentyl-7,8-dihydro-5-(3-methylthiopropyloxy)-1H-imidazo[2,1-i]purine] | 107.7 | 211.0 | –
24 | – | CC(C)(O)CN1C(=O)N2C[C@@H](Cc3ccccc3)N=C2c2[nH]c(C3CCCC3)nc21 [Compound 81, (R)-8-Benzyl-2-cyclopentyl-7,8-dihydro-4-(2-hydroxy-2-methylpropyl)-1H-imidazo[2,1-i]purin-5(4H)-one hydrochloride] | 83.1 | 195.4 | –
25 | – | CC(C)(O)CCN1C(=O)N2C[C@@H](Cc3ccccc3)N=C2c2[nH]c(C3CCCC3)nc21 [Compound 85, (R)-8-Benzyl-2-cyclopentyl-7,8-dihydro-4-(3-hydroxy-3-methylbutyl)-1H-imidazo[2,1-i]purin-5(4H)-one hydrochloride] | 53.6 | 197.1 | –
26 | – | COc1ccc(Cl)cc1C(=O)NCCc1ccc(S(=O)(=O)NC(=O)NC2CCCCC2)cc1 [Glibenclamide, reference compound] | – | – | secretion promoting action at a low glucose concentration (in words) (MIN6 cell): marked secretion promoting action; Insulin secretion amount (ng/ml) avg (MIN6 cell; in the presence of 5 mmol/L of glucose, drug concentration 0.1 (mmol/L [sic]), None = 51.2): 156.8 ng/mL; Insulin secretion amount (ng/ml) avg (MIN6 cell; in the presence of 14.5 mmol/L of glucose, drug concentration 0.1 μmol/L, None = 148.4): 177.8 ng/mL

Row | SMILES | melting point | Insulin secretion amount (ng/ml) avg (MIN6 cell; [1]) [ng/mL] | Insulin secretion amount (ng/ml) avg (MIN6 cell; [2]) [ng/mL] | further results
27 | CCCN1C(=O)N2CC(Cc3ccccc3)CN=C2c2[nH]c(COCC)nc21.O=C(O)/C=C/C(=O)O (stereo not drawn) | 152 to 157 °C | – | – | –
28 | O=C1N2CC(Cc3ccncc3)N=C2c2[nH]c(C3CCCC3)nc2N1CC1CC1 (stereo not drawn) (as salt: hydrochloride) [Compound 14, 2-Cyclopentyl-4-cyclopropylmethyl-7,8-dihydro-8-(4-picolyl)-1H-imidazo[2,1-i]purin-5(4H)-one dihydrochloride] | 240 to 241 °C | – | – | –
